Source: US20230174584A1, “Antibiotic Compounds” (priority 2019, published 2023)
≈ marks a conversion by molar mass, not a printed value.

Legend:
Format in all cases: cell-based, Enterococcus faecium
E. faecium E0013 = assay: MIC assay; conditions: E. faecium E0013, VanA
Experimental: (§1) The antibacterial activity of the compounds was tested against a panel of bacteria, including Gram-positive bacteria (S. aureus ATCC29213, S. aureus USA300, S. aureus LIM-2, NR-45881, S. aureus HIP13419, NR-46413, E. faecium E155, E. faecium E7314, E. faecium E980, E. faecalis E1246, E. faecalis E7406 and S. pneumonia 153). The antibacterial activity of the compounds was further tested against S. aureus NY-155, NR-46236, S. aureus HIP12864, NR-46074, S. aureus 880 (BR-VRSA), NR-49120, E. faecalis E1246, E. faecalis E7604, as well as some Gram-negative bacteria (Escherichia coli and Klebsiella pneumoniae). Minimum inhibitory concentrations (MICs) in μg/mL were performed according to the CLSI guidelines. From glycerol stocks, bacterial strains were cultured on blood agar plates and incubated at 37° C. for 18 h. A single colony was transferred to tryptic soy broth (TSB) with 0.002% polysorbate 80 (p80). For the Enterococcus, VISA and VRSA strains, the cultures were grown at 37° C. until the optical density of the suspension reached a level equivalent to the 0.5 McFarland standard. The bacterial suspensions were diluted in TSB with 0.002% p80 to reach a bacterial cell density of 10^6 CFU/mL. In case of the other (vancomycin-sensitive) S. aureus strains, the direct colony suspension method was used. For these strains, after transfer of the colonies to TSB with 0.002% p80, they were immediately diluted to 10^6 CFU/mL, instead of incubated prior to this dilution. In the case of S. pneumonia, direct colony suspension was used by immediately suspending multiple colonies from fresh blood agar plates in TSB+0.002% p80 to an OD600 of 0.5 and subsequent dilution to 10^6 CFU mL^−1 in TSB+0.002% p80+5% lysed horse blood. Antibiotic dilutions for this strains were also made in TSB+0.002% p80+5% lysed horse blood. Both agar and microplates containing S. pneumonia were incubated at 37° C. with 5% CO2 for 24 h with constant shaking (600 rpm). […] The cultures were grown to exponential phase (OD600=0.5) at 37° C. […] In polypropylene 96-well microtiter plates, test compounds were added in biological triplicates and serial diluted 2-fold by transfer and mixing from one well to the next to achieve a final volume of 50 μL per well. An equal volume of bacterial suspension (10^6 CFU mL^−1) was added to the wells. The plates were sealed with breathable membranes and incubated at 37° C. for 24 h with constant shaking (600 rpm). In polypropylene microtiter plates, 100 μL of the test compounds was added to the first row in biological triplicates, and 50 μL of media was added to the other wells. The compounds were subjected to serial dilution by transfer and mixing of 50 μL from one well to the next. Subsequently, 50 μL of bacterial suspension (10^6 CFU/mL) was added to the wells. The plates were sealed with breathable membranes and incubated at 37° C. for 24 h with constant shaking (600 rpm). Positive growth control consisted of wells with bacterial suspension and without antibiotic. Negative growth control consisted of solely media without bacterial suspension or antibiotic. The MICs were determined from the median of a minimum of triplicates.

E. faecium E0333 = assay: MIC assay; conditions: E. faecium E0333, VanA
Experimental: as §1

E. faecium E0745 = assay: MIC assay; conditions: E. faecium E0745, VanA
Experimental: as §1

E. faecium E1130 = assay: MIC assay; conditions: E. faecium E1130, VanA
Experimental: as §1

E. faecium E1679 = assay: MIC assay; conditions: E. faecium E1679, VanA
Experimental: as §1

E. faecium E2297 = assay: MIC assay; conditions: E. faecium E2297, VanA
Experimental: as §1

E. faecium E2365 = assay: MIC assay; conditions: E. faecium E2365, VanB
Experimental: as §1

E. faecium E2373 = assay: MIC assay; conditions: E. faecium E2373, VanA
Experimental: as §1

E. faecium E6016 = assay: MIC assay; conditions: E. faecium E6016, VanA
Experimental: as §1

E. faecium E7319 = assay: MIC assay; conditions: E. faecium E7319, VanA
Experimental: as §1

E. faecium E7329 = assay: MIC assay; conditions: E. faecium E7329, VanA
Experimental: as §1

E. faecium E7403 = assay: MIC assay; conditions: E. faecium E7403, VanB
Experimental: as §1

E. faecium E7413 = assay: MIC assay; conditions: E. faecium E7413, VanA
Experimental: as §1

E. faecium E7424 = assay: MIC assay; conditions: E. faecium E7424, VanB
Experimental: as §1

E. faecium E7464 = assay: MIC assay; conditions: E. faecium E7464, VanB
Experimental: as §1

E. faecium E8237 = assay: MIC assay; conditions: E. faecium E8237, VanA
Experimental: as §1

E. faecium E980 = assay: MIC assay
Experimental: as §1

E. faecium EO321 = assay: MIC assay; conditions: E. faecium EO321, VanA
Experimental: as §1

E. faecium E0338 = assay: MIC assay; conditions: E. faecium E0338, VanA
E. faecium E7312 = assay: MIC assay; conditions: E. faecium E7312, VanA
[1] = test system: panel of 31 vancomycin-resistant E. faecium strains; assay: MIC assay, MIC50/MIC90 over panel; conditions: panel of 31 vancomycin-resistant E. faecium strains
Experimental: as §1

Structure (SMILES) | MIC (E. faecium E0013) [µg/mL] | MIC (E. faecium E0333) [µg/mL] | MIC (E. faecium E0745) [µg/mL] | MIC (E. faecium E1130) [µg/mL] | MIC (E. faecium E1679) [µg/mL] | MIC (E. faecium E2297) [µg/mL] | MIC (E. faecium E2365) [µg/mL] | MIC (E. faecium E2373) [µg/mL] | MIC (E. faecium E6016) [µg/mL] | MIC (E. faecium E7319) [µg/mL] | MIC (E. faecium E7329) [µg/mL] | MIC (E. faecium E7403) [µg/mL] | MIC (E. faecium E7413) [µg/mL] | MIC (E. faecium E7424) [µg/mL] | MIC (E. faecium E7464) [µg/mL] | MIC (E. faecium E8237) [µg/mL] | MIC (E. faecium E980; E. faecium E980 VSE) [µg/mL] | MIC (E. faecium EO321) [µg/mL] | MIC (E. faecium E0338) [µg/mL] | MIC (E. faecium E7312) [µg/mL] | also measured
CCCCCCCNC(N)=Nc1ccc(CN[C@@]2(C)C[C@H](O[C@H]3[C@H](Oc4c5cc6cc4Oc4ccc(cc4Cl)[C@@H](O)[C@@H](NC(=O)[C@@H](CC(C)C)NC)C(=O)N[C@@H](CC(N)=O)C(=O)N[C@H]6C(=O)N[C@H]4C(=O)N[C@H](C(=O)N[C@H](C(=O)O)c6cc(O)cc(O)c6-c6cc4ccc6O)[C@H](O)c4ccc(c(Cl)c4)O5)O[C@H](CO)[C@@H](O)[C@@H]3O)O[C@@H](C)[C@H]2O)cc1 [Compound 5] | 4 (≈ 2.36 µM) | 8 (≈ 4.72 µM) | 1 (≈ 0.59 µM) | ≤0.008 | 16 (≈ 9.44 µM) | 2 (≈ 1.18 µM) | ≤0.008 | 4 (≈ 2.36 µM) | 1 (≈ 0.59 µM) | 0.5 (≈ 0.295 µM) | ≤0.008 | ≤0.008 | 8 (≈ 4.72 µM) | ≤0.008 | ≤0.008 | 8 (≈ 4.72 µM) | ≤0.007812 | 8 (≈ 4.72 µM) | 4 (≈ 2.36 µM) | 0.25 (≈ 0.148 µM) | MIC50 [1]: 1 µg/mL (≈ 0.59 µM); MIC90 [1]: 8 µg/mL (≈ 4.72 µM)
CCCCCCCCNC(N)=Nc1ccc(CN[C@@]2(C)C[C@H](O[C@H]3[C@H](Oc4c5cc6cc4Oc4ccc(cc4Cl)[C@@H](O)[C@@H](NC(=O)[C@@H](CC(C)C)NC)C(=O)N[C@@H](CC(N)=O)C(=O)N[C@H]6C(=O)N[C@H]4C(=O)N[C@H](C(=O)N[C@H](C(=O)O)c6cc(O)cc(O)c6-c6cc4ccc6O)[C@H](O)c4ccc(c(Cl)c4)O5)O[C@H](CO)[C@@H](O)[C@@H]3O)O[C@@H](C)[C@H]2O)cc1 [Compound 6] | 1 (≈ 0.585 µM) | 4 (≈ 2.34 µM) | 0.25 (≈ 0.146 µM) | ≤0.008 | 8 (≈ 4.68 µM) | 1 (≈ 0.585 µM) | ≤0.008 | 2 (≈ 1.17 µM) | 0.5 (≈ 0.293 µM) | 0.125 (≈ 0.0732 µM) | ≤0.008 | ≤0.008 | 4 (≈ 2.34 µM) | ≤0.008 | ≤0.008 | 2 (≈ 1.17 µM) | 0.01562 (≈ 0.00914 µM) | 4 (≈ 2.34 µM) | 2 (≈ 1.17 µM) | 0.063 (≈ 0.0369 µM) | MIC50 [1]: 0.5 µg/mL (≈ 0.293 µM); MIC90 [1]: 4 µg/mL (≈ 2.34 µM)
CCCCCCCCCNC(N)=Nc1ccc(CN[C@@]2(C)C[C@H](O[C@H]3[C@H](Oc4c5cc6cc4Oc4ccc(cc4Cl)[C@@H](O)[C@@H](NC(=O)[C@@H](CC(C)C)NC)C(=O)N[C@@H](CC(N)=O)C(=O)N[C@H]6C(=O)N[C@H]4C(=O)N[C@H](C(=O)N[C@H](C(=O)O)c6cc(O)cc(O)c6-c6cc4ccc6O)[C@H](O)c4ccc(c(Cl)c4)O5)O[C@H](CO)[C@@H](O)[C@@H]3O)O[C@@H](C)[C@H]2O)cc1 [Compound 7] | 0.5 (≈ 0.29 µM) | 1 (≈ 0.58 µM) | 0.125 (≈ 0.0726 µM) | ≤0.008 | 4 (≈ 2.32 µM) | 0.5 (≈ 0.29 µM) | ≤0.008 | 0.5 (≈ 0.29 µM) | 0.25 (≈ 0.145 µM) | 0.063 (≈ 0.0366 µM) | ≤0.008 | ≤0.008 | 2 (≈ 1.16 µM) | ≤0.008 | ≤0.008 | 1 (≈ 0.58 µM) | 0.03125 (≈ 0.0181 µM) | 1 (≈ 0.58 µM) | 0.5 (≈ 0.29 µM) | 0.031 (≈ 0.018 µM) | MIC50 [1]: 0.125 µg/mL (≈ 0.0726 µM); MIC90 [1]: 1 µg/mL (≈ 0.58 µM)
CCCCCCN(CCCCCC)C(N)=Nc1ccc(CN[C@@]2(C)C[C@H](O[C@H]3[C@H](Oc4c5cc6cc4Oc4ccc(cc4Cl)[C@@H](O)[C@@H](NC(=O)[C@@H](CC(C)C)NC)C(=O)N[C@@H](CC(N)=O)C(=O)N[C@H]6C(=O)N[C@H]4C(=O)N[C@H](C(=O)N[C@H](C(=O)O)c6cc(O)cc(O)c6-c6cc4ccc6O)[C@H](O)c4ccc(c(Cl)c4)O5)O[C@H](CO)[C@@H](O)[C@@H]3O)O[C@@H](C)[C@H]2O)cc1 [Compound 12] | 2 (≈ 1.13 µM) | 2 (≈ 1.13 µM) | 0.25 (≈ 0.142 µM) | ≤0.008 | 8 (≈ 4.53 µM) | 1 (≈ 0.567 µM) | ≤0.008 | 1 (≈ 0.567 µM) | 0.5 (≈ 0.283 µM) | 0.25 (≈ 0.142 µM) | ≤0.008 | ≤0.008 | 2 (≈ 1.13 µM) | ≤0.008 | ≤0.008 | 2 (≈ 1.13 µM) | ≤0.007812 | 2 (≈ 1.13 µM) | 2 (≈ 1.13 µM) | 0.125 (≈ 0.0708 µM) | MIC50 [1]: 0.25 µg/mL (≈ 0.142 µM); MIC90 [1]: 2 µg/mL (≈ 1.13 µM)
CN[C@H](CC(C)C)C(=O)N[C@H]1C(=O)N[C@@H](CC(N)=O)C(=O)N[C@H]2C(=O)N[C@H]3C(=O)N[C@H](C(=O)N[C@H](C(=O)O)c4cc(O)cc(O)c4-c4cc3ccc4O)[C@H](O[C@H]3C[C@](C)(N)[C@@H](O)[C@H](C)O3)c3ccc(c(Cl)c3)Oc3cc2cc(c3O[C@@H]2O[C@H](CO)[C@@H](O)[C@H](O)[C@H]2O[C@H]2C[C@](C)(NCc3ccc(-c4ccc(Cl)cc4)cc3)[C@@H](O)[C@H](C)O2)Oc2ccc(cc2Cl)[C@H]1O [Oritavancin] | – | – | – | – | – | – | – | – | – | – | – | – | – | – | – | – | – | – | – | – | MIC (E. faecium E980; Enterococcus faecium, E980): 0.0625 µg/mL (≈ 0.0349 µM)
